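How tested: cells in 96-well plates exposed to compound for 48 hours at five concentrations. GI50 marks 50% less growth. TGI: concentration producing complete growth inhibition.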 Peptide text beside a SMILES is read from it.
Legend:
Assay in all cases: NCI-60 cell line screen, 48 h
CCRF-CEM leukemia = tested on: CCRF-CEM leukemia
SN12C renal = tested on: SN12C renal
HS 578T breast = tested on: HS 578T breast
SK-MEL-2 melanoma = tested on: SK-MEL-2 melanoma
HCT-116 colon = tested on: HCT-116 colon
NCI-H522 lung = tested on: NCI-H522 lung
HOP-62 NSCLC = tested on: HOP-62 NSCLC
TK-10 renal = tested on: TK-10 renal
786-0 renal = tested on: 786-0 renal
UO-31 renal = tested on: UO-31 renal
BT-549 breast = tested on: BT-549 breast
HCC-2998 colon = tested on: HCC-2998 colon
MALME-3M melanoma = tested on: MALME-3M melanoma
HT29 colon = tested on: HT29 colon
EKVX NSCLC = tested on: EKVX NSCLC
MDA-MB-435 = tested on: MDA-MB-435
RPMI-8226 leukemia = tested on: RPMI-8226 leukemia
SF-539 CNS = tested on: SF-539 CNS
UACC-62 melanoma = tested on: UACC-62 melanoma
U251 CNS = tested on: U251 CNS
OVCAR-4 ovarian = tested on: OVCAR-4 ovarian
IGROV1 ovarian = tested on: IGROV1 ovarian
SF-295 CNS = tested on: SF-295 CNS
A498 renal = tested on: A498 renal
HOP-92 NSCLC = tested on: HOP-92 NSCLC
DU-145 prostate = tested on: DU-145 prostate
SK-MEL-5 melanoma = tested on: SK-MEL-5 melanoma
COLO 205 colon = tested on: COLO 205 colon
SR leukemia = tested on: SR leukemia
NCI-H460 lung = tested on: NCI-H460 lung
OVCAR-5 ovarian = tested on: OVCAR-5 ovarian
HL-60(TB) leukemia = tested on: HL-60(TB) leukemia
SK-OV-3 ovarian = tested on: SK-OV-3 ovarian
MCF7 breast = tested on: MCF7 breast
UACC-257 melanoma = tested on: UACC-257 melanoma
LOX IMVI melanoma = tested on: LOX IMVI melanoma
PC-3 prostate = tested on: PC-3 prostate
A549 NSCLC = tested on: A549 NSCLC
SK-MEL-28 melanoma = tested on: SK-MEL-28 melanoma
SW-620 colon = tested on: SW-620 colon
M14 melanoma = tested on: M14 melanoma
CAKI-1 renal = tested on: CAKI-1 renal
OVCAR-8 ovarian = tested on: OVCAR-8 ovarian
K-562 leukemia = tested on: K-562 leukemia
OVCAR-3 ovarian = tested on: OVCAR-3 ovarian
SNB-75 CNS = tested on: SNB-75 CNS
ACHN renal = tested on: ACHN renal
MDA-MB-231 breast = tested on: MDA-MB-231 breast
SF-268 CNS = tested on: SF-268 CNS
NCI/ADR-RES ovarian = tested on: NCI/ADR-RES ovarian
KM12 colon = tested on: KM12 colon
HCT-15 colon = tested on: HCT-15 colon
SNB-19 CNS = tested on: SNB-19 CNS
RXF 393 renal = tested on: RXF 393 renal
NCI-H23 lung = tested on: NCI-H23 lung
MOLT-4 leukemia = tested on: MOLT-4 leukemia
NCI-H226 lung = tested on: NCI-H226 lung

CC(=O)NC(C(=O)NC(C)C(=O)N1CCCC1C(=O)O)C(C)C (stereo not drawn) (Ac-Val-Ala-Pro-OH; configuration not given here)
GI50 (CCRF-CEM leukemia): 89.9 µg/mL
GI50 (SN12C renal): 46.6 µg/mL
GI50 (HS 578T breast): 65.6 µg/mL
GI50 (SK-MEL-2 melanoma): 83.8 µg/mL

Cc1cn(Cc2ccccc2CCl)c(=O)n(Cc2ccccc2CCl)c1=O
GI50 (HCT-116 colon): 1.55 µM
TGI (HCT-116 colon): 3.18 µM
GI50 (NCI-H522 lung): 1.3 µM
TGI (NCI-H522 lung): 2.94 µM
GI50 (HOP-62 NSCLC): 2.31 µM
TGI (HOP-62 NSCLC): 4.13 µM
GI50 (TK-10 renal): 2.92 µM
TGI (TK-10 renal): 6.53 µM
GI50 (786-0 renal): 1.67 µM
TGI (786-0 renal): 3.39 µM
GI50 (CCRF-CEM leukemia): 1.93 µM
TGI (CCRF-CEM leukemia): 5.5 µM
GI50 (UO-31 renal): 1.65 µM
TGI (UO-31 renal): 3.17 µM
GI50 (BT-549 breast): 1.85 µM
TGI (BT-549 breast): 3.52 µM
GI50 (HCC-2998 colon): 1.5 µM
TGI (HCC-2998 colon): 2.95 µM
GI50 (MALME-3M melanoma): 2.03 µM
TGI (MALME-3M melanoma): 4.02 µM
GI50 (HT29 colon): 2.04 µM
TGI (HT29 colon): 5.69 µM
GI50 (EKVX NSCLC): 2.26 µM
TGI (EKVX NSCLC): 5.13 µM
GI50 (MDA-MB-435): 1.97 µM
TGI (MDA-MB-435): 4.07 µM
GI50 (RPMI-8226 leukemia): 1.93 µM
TGI (RPMI-8226 leukemia): 6.36 µM
GI50 (SF-539 CNS): 2.47 µM
TGI (SF-539 CNS): 5.65 µM
GI50 (UACC-62 melanoma): 1.67 µM
TGI (UACC-62 melanoma): 3.16 µM
GI50 (U251 CNS): 1.57 µM
TGI (U251 CNS): 3.1 µM
GI50 (OVCAR-4 ovarian): 1.98 µM
TGI (OVCAR-4 ovarian): 4.83 µM
GI50 (IGROV1 ovarian): 0.53 µM
TGI (IGROV1 ovarian): 2.25 µM
GI50 (SF-295 CNS): 3.52 µM
TGI (SF-295 CNS): 16.7 µM
GI50 (A498 renal): 10.6 µM
TGI (A498 renal): 27.4 µM
GI50 (HOP-92 NSCLC): 1.86 µM
TGI (HOP-92 NSCLC): 3.62 µM
GI50 (DU-145 prostate): 1.93 µM
TGI (DU-145 prostate): 3.68 µM
GI50 (SK-MEL-5 melanoma): 1.56 µM
TGI (SK-MEL-5 melanoma): 2.93 µM
GI50 (COLO 205 colon): 1.53 µM
TGI (COLO 205 colon): 3.54 µM
GI50 (SR leukemia): 0.661 µM
TGI (SR leukemia): 3.25 µM
GI50 (NCI-H460 lung): 1.98 µM
TGI (NCI-H460 lung): 4.67 µM
GI50 (OVCAR-5 ovarian): 2.61 µM
TGI (OVCAR-5 ovarian): 9.69 µM
GI50 (SN12C renal): 2.65 µM
TGI (SN12C renal): 6.97 µM
GI50 (HL-60(TB) leukemia): 1.37 µM
TGI (HL-60(TB) leukemia): 3.24 µM
GI50 (SK-OV-3 ovarian): 3.27 µM
TGI (SK-OV-3 ovarian): 9.62 µM
GI50 (HS 578T breast): 2.65 µM
TGI (HS 578T breast): 15.1 µM
GI50 (MCF7 breast): 1.36 µM
TGI (MCF7 breast): 4.77 µM
GI50 (UACC-257 melanoma): 2.25 µM
TGI (UACC-257 melanoma): 4.86 µM
GI50 (LOX IMVI melanoma): 1.16 µM
TGI (LOX IMVI melanoma): 2.59 µM
GI50 (PC-3 prostate): 1.83 µM
TGI (PC-3 prostate): 3.91 µM
GI50 (A549 NSCLC): 3.9 µM
TGI (A549 NSCLC): 14.2 µM
GI50 (SK-MEL-28 melanoma): 2.21 µM
TGI (SK-MEL-28 melanoma): 5.49 µM
GI50 (SK-MEL-2 melanoma): 1.32 µM
TGI (SK-MEL-2 melanoma): 4.29 µM
GI50 (SW-620 colon): 2.14 µM
TGI (SW-620 colon): 6.03 µM
GI50 (M14 melanoma): 1.69 µM
TGI (M14 melanoma): 3.28 µM
GI50 (CAKI-1 renal): 1.86 µM
TGI (CAKI-1 renal): 3.3 µM
GI50 (OVCAR-8 ovarian): 2.39 µM
TGI (OVCAR-8 ovarian): 5.69 µM
GI50 (K-562 leukemia): 3.19 µM
TGI (K-562 leukemia): 10 µM
GI50 (OVCAR-3 ovarian): 1.85 µM
TGI (OVCAR-3 ovarian): 3.65 µM
GI50 (SNB-75 CNS): 1.81 µM
TGI (SNB-75 CNS): 3.79 µM
GI50 (ACHN renal): 1.66 µM
TGI (ACHN renal): 3.06 µM
GI50 (MDA-MB-231 breast): 1.86 µM
TGI (MDA-MB-231 breast): 3.57 µM
GI50 (SF-268 CNS): 2.32 µM
TGI (SF-268 CNS): 5.99 µM
GI50 (NCI/ADR-RES ovarian): 2.22 µM
TGI (NCI/ADR-RES ovarian): 6.36 µM
GI50 (KM12 colon): 1.99 µM
TGI (KM12 colon): 4.48 µM
GI50 (HCT-15 colon): 1.96 µM
TGI (HCT-15 colon): 4.43 µM
GI50 (SNB-19 CNS): 2.57 µM
TGI (SNB-19 CNS): 6.66 µM
GI50 (RXF 393 renal): 1.57 µM
TGI (RXF 393 renal): 3.22 µM
GI50 (NCI-H23 lung): 2.19 µM
TGI (NCI-H23 lung): 5.43 µM

CC/C(=C\c1ccc(Cl)c(Cl)c1)[N+](=O)[O-]
TGI (MOLT-4 leukemia): 2.01 µM
TGI (HCT-116 colon): > 100 µM
TGI (NCI-H522 lung): 3.49 µM
TGI (TK-10 renal): 4.04 µM
TGI (HCC-2998 colon): 3.59 µM
TGI (MALME-3M melanoma): 4.11 µM
TGI (HT29 colon): > 100 µM
TGI (EKVX NSCLC): 7.88 µM
TGI (MDA-MB-435): 3.1 µM
TGI (UACC-62 melanoma): 3.89 µM
TGI (OVCAR-4 ovarian): 7.57 µM
TGI (IGROV1 ovarian): 3.31 µM
TGI (SF-295 CNS): 5.36 µM
TGI (A498 renal): 24.1 µM
TGI (DU-145 prostate): 5.39 µM
TGI (SK-MEL-5 melanoma): 3.92 µM
TGI (SR leukemia): 3.61 µM
TGI (HL-60(TB) leukemia): 5.67 µM
TGI (HS 578T breast): > 100 µM
TGI (MCF7 breast): 3.48 µM
TGI (UACC-257 melanoma): 3.58 µM
TGI (SK-MEL-2 melanoma): 4.85 µM
TGI (SW-620 colon): > 100 µM
TGI (OVCAR-8 ovarian): 3.4 µM
TGI (K-562 leukemia): 47.4 µM
TGI (SNB-75 CNS): > 100 µM
TGI (MDA-MB-231 breast): 5.4 µM
TGI (SF-268 CNS): 4.57 µM
TGI (KM12 colon): 10.4 µM
TGI (SNB-19 CNS): 5.7 µM
TGI (NCI-H23 lung): 5.21 µM

Cc1[nH]c2ccccc2c1C1=CC(=O)N(c2ccccc2)C1=O
TGI (MOLT-4 leukemia): > 100 µM
TGI (HCT-116 colon): 22.7 µM
TGI (HOP-62 NSCLC): 25.5 µM
TGI (TK-10 renal): 60.7 µM
TGI (786-0 renal): 31.4 µM
TGI (CCRF-CEM leukemia): 73.4 µM
TGI (UO-31 renal): > 100 µM
TGI (BT-549 breast): > 100 µM
TGI (HCC-2998 colon): 7.38 µM
TGI (MALME-3M melanoma): 41.9 µM
TGI (HT29 colon): 21.8 µM
TGI (EKVX NSCLC): 83.9 µM
TGI (MDA-MB-435): > 100 µM
TGI (RPMI-8226 leukemia): > 100 µM
TGI (SF-539 CNS): 27.1 µM
TGI (UACC-62 melanoma): 26.9 µM
TGI (U251 CNS): 47.7 µM
TGI (IGROV1 ovarian): > 100 µM
TGI (SF-295 CNS): > 100 µM
TGI (A498 renal): 60.3 µM
TGI (HOP-92 NSCLC): 50.9 µM
TGI (DU-145 prostate): 52.5 µM
TGI (SK-MEL-5 melanoma): 21.9 µM
TGI (COLO 205 colon): > 100 µM
TGI (NCI-H460 lung): 39.4 µM
TGI (OVCAR-5 ovarian): > 100 µM
TGI (SN12C renal): 86 µM
TGI (HL-60(TB) leukemia): 39 µM
TGI (SK-OV-3 ovarian): > 100 µM
TGI (HS 578T breast): 43.5 µM
TGI (MCF7 breast): 48.1 µM
TGI (UACC-257 melanoma): 61.5 µM
TGI (LOX IMVI melanoma): 18.3 µM
TGI (PC-3 prostate): > 100 µM
TGI (A549 NSCLC): > 100 µM
TGI (SK-MEL-28 melanoma): 20.5 µM
TGI (SK-MEL-2 melanoma): 31.5 µM
TGI (SW-620 colon): 37.8 µM
TGI (M14 melanoma): 32.2 µM
TGI (CAKI-1 renal): > 100 µM
TGI (OVCAR-8 ovarian): 50 µM
TGI (K-562 leukemia): 29.8 µM
TGI (OVCAR-3 ovarian): > 100 µM
TGI (ACHN renal): > 100 µM
TGI (NCI-H226 lung): 88.4 µM
TGI (MDA-MB-231 breast): > 100 µM
TGI (SF-268 CNS): > 100 µM
TGI (NCI/ADR-RES ovarian): > 100 µM
TGI (HCT-15 colon): 34.5 µM
TGI (SNB-19 CNS): > 100 µM
TGI (RXF 393 renal): 26.6 µM
TGI (NCI-H23 lung): 60.9 µM
